Reference: patent US20220202012A1, “SPROUT INHIBITOR FOR POTATO AND METHOD OF USE THEREOF” (UPL Limited, priority 2019, published 2022)
Several values for one entry are separate records, joined by “and”; a condition that tells them apart may be missing. Identical values can stand only once.

Tests used:
storage potatoes = test: Field trial: sprout suppression in storage potatoes, composition applied on a conveyor belt; type: in vivo, Solanum tuberosum
Description: The efficacy of sprout inhibitor for sprout suppression in storage potatoes was evaluated by applying the composition of present invention on potatoes on a conveyor belt. The treatment application for trial is at crop storage majority treatment 1) Beginning of sprouting: sprouts visible (<1 mm) and, treatment 2) at end of dormancy (sprouts 2-3 mm). After completion of the test, the potatoes were evaluated on sprouting reduction efficiency. No phytotoxicity was observed.

[1] = test system: potatoes of the variety Fontane and Innovator; test: Field trials in Belgium 2018/2019: anti-sprout spray treatment of stored potatoes; type: in vivo, Solanum tuberosum; parameters: Tuber sprate 126 da-a / Tuber sprate 182 da-a: scale not given here; Sprout weight after 55 DA / Sprout LENMAX after 55 DA / Sprout weight 55 DA / Sprout weight 116 DA / Sprout Lenmax 55 DA / Sprout Lenmax 116 DA / Sprout lenmax 126 DA-A / Sprout lenmax 182 DA-A / Sprout weight 126 DA / Sprout weight 182 DA: unit not given here; conditions: for Sprout LENMAX after 55 DA: Length maximal; for Sprout Lenmax 55 DA / Sprout weight 55 DA / Tuber sprout % 55 DA / Sprout Lenmax 116 DA / Sprout weight 116 DA / Tuber sprout % 116 DA: Table 4; for Sprout lenmax 126 DA-A / Sprout weight 126 DA / Tuber sprouted (%) 126 DA / Tuber sprate 126 da-a / Sprout lenmax 182 DA-A / Sprout weight 182 DA / Tuber sprouted % 182 DA / Tuber sprate 182 da-a: Table 5
Description: Field trials were conducted in Belgium, during 2018 and 2019, in the potato crop. The potatoes of the variety Fontane and Innovator was used for anti-sprout treatment (Variety for processing) came up directly from the field (Harvested on Oct. 5, 2018 and Sep. 19, 2018).
The trial was set up in randomized complete block with single control randomized in each block under commercial storage practice. Potatoes treated 3 days after lifting and skin maturity was good. For application of formulation (carrier: 200 ml water for one treatment) container with rack and spray stick was used.
The first application (A) was carried out Potatoes treated 3 days after lifting. The following applications were carried out at four weeks' interval for each treatment.
(A): right after harvest, before putting into storage.
Storage conditions: The trials are stored in shed at temperature 5-18° C. and all plots of a trial should be stored in the same place.

[2] = Treatment (1): Beginning of sprouting, rate 60 ml/1000 kg
[3] = Treatment (2): At end of dormancy, rate not given
[4] = Treatment (1): Beginning of sprouting, rate 400 ml/1000 kg
[5] = Treatment (1): Beginning of sprouting, rate 195 ml/1000 kg
[6] = Treatment (1): Beginning of sprouting, rate 300 ml/1000 kg

In the case of Cc1ccc(C)c2ccccc12 [1,4-Dimethylnaphthalene], the “Sprout No.” value (storage potatoes; [2]) is reported as 15.7, the “Sprouted (%)” value (storage potatoes; [2]) is reported as 42.80% and the “Sprout Number” value (storage potatoes; [3]) is reported as 34.3. For the same compound, the “Sprouted (%)” value (storage potatoes; [3]) was 94.59%.

O=C(O)COc1ccc(Cl)cc1Cl [2,4-D] was tested, and the “Sprout No.” value (storage potatoes; [4]) was 12.3, the “Sprouted (%)” value (storage potatoes; [4]) was 31.14% and the “Sprout Number” value (storage potatoes; [3]) was 38.7. For the same compound, the “Sprouted (%)” value (storage potatoes; [3]) was 99.21%.

With CCCCCCC=CC(C)=O [3-Decen-2-One] the “Sprout No.” value (storage potatoes; [5]) was 9.0, the “Sprouted (%)” value (storage potatoes; [5]) was 24.75% and the “Sprout Number” value (storage potatoes; [3]) was 32.7. For the same compound, the “Sprouted (%)” value (storage potatoes; [3]) was 100.0%.

In the case of C=C(C)C1CC=C(C)C(=O)C1 (stereo not drawn) [Carvone], the “Sprout No.” value (storage potatoes; [6]) is reported as 12.3, the “Sprouted (%)” value (storage potatoes; [6]) is reported as 32.02% and the “Sprout Number” value (storage potatoes; [3]) is reported as 34.0. The “Sprouted (%)” value (storage potatoes; [3]) was 96.02%.

COCc1cnc(C2=NC(C)(C(C)C)C(=O)N2)c(C(=O)O)c1 (stereo not drawn) [Imazamox, 5-(methoxymethyl)-2-(4-methyl-5-oxo-4-propan-2-yl-1H-imidazol-2-yl)pyridine-3-carboxylic acid] was tested, and the “Sprout No.” value (storage potatoes; [4]) was 9.7, the “Sprouted (%)” value (storage potatoes; [4]) was 24.77% and the “Sprout Number” value (storage potatoes; [3]) was 16.7. The “Sprouted (%)” value (storage potatoes; [3]) was 42.54%, the “Sprout weight after 55 DA” value ([1]; rate 12 g ai/1000 kg) was 6.89 and the “Tuber SPROUTED (%) after 55 DA” value ([1]; rate 12 g ai/1000 kg) was 78.67%. For the same compound, the “Sprout weight after 55 DA” value ([1]; rate 18 g ai/1000 kg) was 4.09, the “Tuber SPROUTED (%) after 55 DA” value ([1]; rate 18 g ai/1000 kg) was 73.21% and the “Sprout weight after 55 DA” value ([1]; rate 24 g ai/1000 kg) was 4.2. The “Tuber SPROUTED (%) after 55 DA” value ([1]; rate 24 g ai/1000 kg) was 75.26%, the “Sprout weight after 55 DA” value ([1]; rate 30 g ai/1000 kg) was 4.13 and the “Tuber SPROUTED (%) after 55 DA” value ([1]; rate 30 g ai/1000 kg) was 71.68%. The “Sprout LENMAX after 55 DA” value ([1]; rate 12 g ai/1000 kg) was 1.5, the “Sprout LENMAX after 55 DA” value ([1]; rate 18 g ai/1000 kg) was 1.7 and the “Sprout LENMAX after 55 DA” value ([1]; rate 24 g ai/1000 kg) was 1.2. The “Sprout LENMAX after 55 DA” value ([1]; rate 30 g ai/1000 kg) was 1.7, the “Sprout Lenmax 55 DA” value ([1]; rate 100 ml/1000 kg) was 1.5 and the “Sprout weight 55 DA” value ([1]; rate 100 ml/1000 kg) was 6.89. For the same compound, the “Tuber sprout % 55 DA” value ([1]; rate 100 ml/1000 kg) was 78.67%, the “Sprout Lenmax 55 DA” value ([1]; rate 150 ml/1000 kg) was 1.7 and the “Sprout weight 55 DA” value ([1]; rate 150 ml/1000 kg) was 4.09. The “Tuber sprout % 55 DA” value ([1]; rate 150 ml/1000 kg) was 73.21%, the “Sprout Lenmax 55 DA” value ([1]; rate 200 ml/1000 kg) was 1.2 and the “Sprout weight 55 DA” value ([1]; rate 200 ml/1000 kg) was 4.2. The “Tuber sprout % 55 DA” value ([1]; rate 200 ml/1000 kg) was 75.26%, the “Sprout Lenmax 55 DA” value ([1]; rate 250 ml/1000 kg) was 1.7 and the “Sprout weight 55 DA” value ([1]; rate 250 ml/1000 kg) was 4.13. The “Tuber sprout % 55 DA” value ([1]; rate 250 ml/1000 kg) was 71.68%, the “Sprout Lenmax 116 DA” value ([1]; rate 100 ml/1000 kg) was 3.3 and the “Sprout weight 116 DA” value ([1]; rate 100 ml/1000 kg) was 12.31. For the same compound, the “Tuber sprout % 116 DA” value ([1]; rate 100 ml/1000 kg) was 85.86%, the “Sprout Lenmax 116 DA” value ([1]; rate 150 ml/1000 kg) was 2.8 and the “Sprout weight 116 DA” value ([1]; rate 150 ml/1000 kg) was 7.92. The “Tuber sprout % 116 DA” value ([1]; rate 150 ml/1000 kg) was 79.15%, the “Sprout Lenmax 116 DA” value ([1]; rate 200 ml/1000 kg) was 2 and the “Sprout weight 116 DA” value ([1]; rate 200 ml/1000 kg) was 7.07. The “Tuber sprout % 116 DA” value ([1]; rate 200 ml/1000 kg) was 81.59%, the “Sprout Lenmax 116 DA” value ([1]; rate 250 ml/1000 kg) was 1.3 and the “Sprout weight 116 DA” value ([1]; rate 250 ml/1000 kg) was 4.92. For the same compound, the “Tuber sprout % 116 DA” value ([1]; rate 250 ml/1000 kg) was 71.93%, the “Sprout lenmax 126 DA-A” value ([1]; rate 50 ml/1000 kg) was 3.7 and the “Sprout lenmax 126 DA-A” value ([1]; rate 100 ml/1000 kg) was 2.8 and 5.2. The “Sprout lenmax 126 DA-A” value ([1]; rate 150 ml/1000 kg) was 1.7, the “Sprout lenmax 126 DA-A” value ([1]; rate 200 ml/1000 kg) was 2.2 and 2.1 and the “Sprout lenmax 126 DA-A” value ([1]; rate 250 ml/1000 kg) was 0.9. For the same compound, the “Sprout weight 126 DA” value ([1]; rate 50 ml/1000 kg) was 6.54, the “Tuber sprouted (%) 126 DA” value ([1]; rate 50 ml/1000 kg) was 88.47% and the “Sprout weight 126 DA” value ([1]; rate 150 ml/1000 kg) was 2.23 and 1.83. The “Tuber sprouted (%) 126 DA” value ([1]; rate 150 ml/1000 kg) was 81.43% and 72.58%, the “Sprout weight 126 DA” value ([1]; rate 200 ml/1000 kg) was 1.93 and 1.75 and the “Tuber sprouted (%) 126 DA” value ([1]; rate 200 ml/1000 kg) was 73.58% and 75.44%. The “Sprout weight 126 DA” value ([1]; rate 250 ml/1000 kg) was 1.65, the “Tuber sprouted (%) 126 DA” value ([1]; rate 250 ml/1000 kg) was 75.06% and the “Tuber sprate 126 da-a” value ([1]; rate 50 ml/1000 kg) was 8.83. For the same compound, the “Tuber sprate 126 da-a” value ([1]; rate 100 ml/1000 kg) was 9.5 and 8.83, the “Tuber sprate 126 da-a” value ([1]; rate 150 ml/1000 kg) was 9.5 and 9.58 and the “Tuber sprate 126 da-a” value ([1]; rate 200 ml/1000 kg) was 9.67 and 9.75. For the same compound, the “Tuber sprate 126 da-a” value ([1]; rate 250 ml/1000 kg) was 9.75, the “Sprout lenmax 182 DA-A” value ([1]; rate 50 ml/1000 kg) was 4.2 and the “Sprout lenmax 182 DA-A” value ([1]; rate 150 ml/1000 kg) was 1 and 0.7. For the same compound, the “Sprout lenmax 182 DA-A” value ([1]; rate 200 ml/1000 kg) was 1.7 and 1, the “Sprout lenmax 182 DA-A” value ([1]; rate 250 ml/1000 kg) was 1.2 and the “Sprout weight 182 DA” value ([1]; rate 50 ml/1000 kg) was 23. The “Tuber sprouted % 182 DA” value ([1]; rate 50 ml/1000 kg) was 88.1%, the “Tuber sprouted % 182 DA” value ([1]; rate 100 ml/1000 kg) was 83.33% and 86.19% and the “Sprout weight 182 DA” value ([1]; rate 150 ml/1000 kg) was 3.77 and 3.13. For the same compound, the “Tuber sprouted % 182 DA” value ([1]; rate 150 ml/1000 kg) was 73.1% and 75.45%, the “Sprout weight 182 DA” value ([1]; rate 200 ml/1000 kg) was 5.77 and 3.3 and the “Tuber sprouted % 182 DA” value ([1]; rate 200 ml/1000 kg) was 77.93% and 65.99%. For the same compound, the “Sprout weight 182 DA” value ([1]; rate 250 ml/1000 kg) was 3.53, the “Tuber sprouted % 182 DA” value ([1]; rate 250 ml/1000 kg) was 74.98% and the “Tuber sprate 182 da-a” value ([1]; rate 50 ml/1000 kg) was 8.67. The “Tuber sprate 182 da-a” value ([1]; rate 100 ml/1000 kg) was 9.67 and 8.83, the “Tuber sprate 182 da-a” value ([1]; rate 150 ml/1000 kg) was 9.75 and the “Tuber sprate 182 da-a” value ([1]; rate 200 ml/1000 kg) was 9.58 and 9.67. The “Tuber sprate 182 da-a” value ([1]; rate 250 ml/1000 kg) was 9.67, the “sprout control over time (in words)” value ([1]; as compared to other treatments such as maleic hydrazide, CIPC) was “effective sprout control over an extended period of time” and the “inhibition of sprouts (in words)” value ([1]; comment on Table 3) was “effective for inhibition of sprouts”. The “sprout weight (in words)” value ([1]; comment on Table 3, as compared to maleic hydrazide) was “an advantage was found” and the tubers germinated ([1]; comment on Table 5, dose rate 250 ml/1000 kg) was 74%.
